This series in a line: activity coefficient (dimensionless); of the first substance listed, at infinite dilution; xn = mol fraction of the nth substance listed. The following applies: 100 kPa, Liquid, Chromatography, x1 = 0.

Numbers after ± are expanded uncertainties.

With `Cc1ccccc1C` [1,2-dimethylbenzene] + CCCC[N+]1(C)CCCC1.N#CN=C=[N-], the activity coefficient (313.15 K) was found to be 2.69 ± 0.28; the activity coefficient (323.15 K) stood at 2.75 ± 0.29; the activity coefficient (343.15 K) is 2.91 ± 0.31; the activity coefficient (363.15 K) turned out to be 3.1 ± 0.3; the activity coefficient (373.15 K) was found to be 3.18 ± 0.33.

For the molecule `Cc1cccc(C)c1` [1,3-dimethylbenzene] + CCCC[N+]1(C)CCCC1.N#CN=C=[N-], the activity coefficient reads like this: (313.15 K) 3.36 ± 0.35; (323.15 K) 3.47 ± 0.36; (343.15 K) 3.58 ± 0.38; (363.15 K) 3.74 ± 0.39; (373.15 K) 3.81 ± 0.4.

As to `Cc1ccc(C)cc1` [1,4-dimethylbenzene] + CCCC[N+]1(C)CCCC1.N#CN=C=[N-], the activity coefficient was 3.24 ± 0.34 (313.15 K); 3.24 ± 0.34 (323.15 K); 3.47 ± 0.36 (343.15 K); 3.63 ± 0.38 (363.15 K); 3.73 ± 0.39 (373.15 K).

Consider `C1COCCO1` [1,4-dioxane] + CCCC[N+]1(C)CCCC1.N#CN=C=[N-], for which the activity coefficient was 0.909 ± 0.093 (313.15 K); 0.962 ± 0.098 (323.15 K); 1.05 ± 0.11 (343.15 K); 1.13 ± 0.12 (363.15 K); 1.17 ± 0.12 (373.15 K).

Regarding `C=CCCCCCCCC` [1-decene] + CCCC[N+]1(C)CCCC1.N#CN=C=[N-], the activity coefficient reads like this: (313.15 K) 104 ± 11; (323.15 K) 98.2 ± 10; (343.15 K) 89.4 ± 9.4; (363.15 K) 83.7 ± 8.8; (373.15 K) 78.7 ± 8.3.

In the case of `C=CCCCCC` [1-heptene] + CCCC[N+]1(C)CCCC1.N#CN=C=[N-], the activity coefficient (313.15 K) came out at 31.5 ± 3.3; the activity coefficient (323.15 K) was found to be 30.4 ± 3.2; the activity coefficient (343.15 K) was determined as 29.2 ± 3.1; the activity coefficient (363.15 K) turned out to be 27.8 ± 2.9; the activity coefficient (373.15 K) was found to be 27.7 ± 2.9.

Turning to `C#CCCCCC` [1-heptyne] + CCCC[N+]1(C)CCCC1.N#CN=C=[N-], the activity coefficient is 5.76 ± 0.61 (313.15 K); 5.95 ± 0.63 (323.15 K); 6.39 ± 0.67 (343.15 K); 6.76 ± 0.71 (363.15 K); 6.92 ± 0.73 (373.15 K).

`C#CCCCC` [1-hexyne] + CCCC[N+]1(C)CCCC1.N#CN=C=[N-]: the activity coefficient reads like this: (313.15 K) 3.81 ± 0.4; (323.15 K) 3.98 ± 0.42; (343.15 K) 4.32 ± 0.45; (363.15 K) 4.61 ± 0.48; (373.15 K) 4.77 ± 0.5.

Consider `CCC[N+](=O)[O-]` [1-nitropropane] + CCCC[N+]1(C)CCCC1.N#CN=C=[N-], for which the activity coefficient is, setting by setting: (313.15 K) 0.721 ± 0.075; (323.15 K) 0.74 ± 0.077; (343.15 K) 0.789 ± 0.081; (363.15 K) 0.827 ± 0.085; (373.15 K) 0.838 ± 0.086.

`C#CCCCCCC` [1-octyne] + CCCC[N+]1(C)CCCC1.N#CN=C=[N-]: the activity coefficient reads like this: (313.15 K) 8.87 ± 0.93; (323.15 K) 9.03 ± 0.95; (343.15 K) 9.41 ± 0.99; (363.15 K) 9.79 ± 1; (373.15 K) 9.87 ± 1.

On to `CCOC(C)(C)C` [2-ethoxy-2-methylpropane] + CCCC[N+]1(C)CCCC1.N#CN=C=[N-], for which the activity coefficient is, setting by setting: (313.15 K) 17.2 ± 1.8; (323.15 K) 16.9 ± 1.8; (343.15 K) 16.9 ± 1.8; (363.15 K) 16.7 ± 1.8; (373.15 K) 16.1 ± 1.7.

Regarding `CCC(C)(C)OC` [2-methoxy-2-methylbutane] + CCCC[N+]1(C)CCCC1.N#CN=C=[N-], the activity coefficient worked out at 9.56 ± 1 (313.15 K); 9.39 ± 0.99 (323.15 K); 9.65 ± 1 (343.15 K); 9.77 ± 1 (363.15 K); 9.93 ± 1 (373.15 K).

As for `COC(C)(C)C` [2-methoxy-2-methylpropane] + CCCC[N+]1(C)CCCC1.N#CN=C=[N-], the activity coefficient stood at 6.25 ± 0.66 (313.15 K); 6.32 ± 0.66 (323.15 K); 6.55 ± 0.69 (343.15 K); 6.92 ± 0.73 (363.15 K); 7.15 ± 0.75 (373.15 K).

With `CC(C)CO` [2-methyl-1-propanol] + CCCC[N+]1(C)CCCC1.N#CN=C=[N-], the activity coefficient reads like this: (313.15 K) 0.872 ± 0.089; (323.15 K) 0.835 ± 0.086; (343.15 K) 0.785 ± 0.081; (363.15 K) 0.786 ± 0.081; (373.15 K) 0.764 ± 0.079.

Turning to `C=C(C)c1ccccc1` [(1-methylethenyl)benzene] + CCCC[N+]1(C)CCCC1.N#CN=C=[N-], the activity coefficient (313.15 K) was 2.2 ± 0.23; the activity coefficient (323.15 K) was found to be 2.37 ± 0.25; the activity coefficient (343.15 K) was found to be 2.67 ± 0.28; the activity coefficient (363.15 K) is 2.89 ± 0.3; the activity coefficient (373.15 K) stood at 3.02 ± 0.32.

As for `CC(C)=O` [acetone] + CCCC[N+]1(C)CCCC1.N#CN=C=[N-], the activity coefficient is 0.907 ± 0.093 (313.15 K); 0.91 ± 0.09 (323.15 K); 0.978 ± 0.099 (343.15 K); 1.04 ± 0.11 (363.15 K); 1.06 ± 0.11 (373.15 K).

`CC#N` [acetonitrile] + CCCC[N+]1(C)CCCC1.N#CN=C=[N-]: the activity coefficient runs as follows: (313.15 K) 0.659 ± 0.069; (323.15 K) 0.668 ± 0.07; (343.15 K) 0.693 ± 0.072; (363.15 K) 0.72 ± 0.08; (373.15 K) 0.728 ± 0.076.

Turning to `c1ccccc1` [benzene] + CCCC[N+]1(C)CCCC1.N#CN=C=[N-], the activity coefficient reads like this: (313.15 K) 1.38 ± 0.14; (323.15 K) 1.4 ± 0.14; (343.15 K) 1.49 ± 0.15; (363.15 K) 1.6 ± 0.2; (373.15 K) 1.62 ± 0.17.

For `CCCCO` [butan-1-ol] + CCCC[N+]1(C)CCCC1.N#CN=C=[N-], the activity coefficient (313.15 K) stood at 0.897 ± 0.092; the activity coefficient (323.15 K) was determined as 0.873 ± 0.089; the activity coefficient (343.15 K) amounted to 0.844 ± 0.087; the activity coefficient (363.15 K) was 0.836 ± 0.086; the activity coefficient (373.15 K) was 0.814 ± 0.084.

As to `CCC(C)O` (stereo not given) [butan-2-ol] + CCCC[N+]1(C)CCCC1.N#CN=C=[N-], the activity coefficient (313.15 K) came to 0.875 ± 0.09; the activity coefficient (323.15 K) came out at 0.888 ± 0.091; the activity coefficient (343.15 K) is 0.859 ± 0.088; the activity coefficient (363.15 K) was 0.869 ± 0.089; the activity coefficient (373.15 K) is 0.881 ± 0.09.

In the case of `CCCC=O` [butanal] + CCCC[N+]1(C)CCCC1.N#CN=C=[N-], the activity coefficient by setting is: (313.15 K) 1.4 ± 0.14; (323.15 K) 1.46 ± 0.15; (343.15 K) 1.53 ± 0.16; (363.15 K) 1.62 ± 0.17; (373.15 K) 1.67 ± 0.17.

In the case of `C1=CCCCC1` [cyclohexene] + CCCC[N+]1(C)CCCC1.N#CN=C=[N-], the activity coefficient by setting is: (313.15 K) 9.06 ± 0.95; (323.15 K) 8.78 ± 0.92; (343.15 K) 8.65 ± 0.91; (363.15 K) 8.48 ± 0.89; (373.15 K) 8.26 ± 0.87.

Consider `CC(C)OC(C)C` [diisopropyl ether] + CCCC[N+]1(C)CCCC1.N#CN=C=[N-], for which the activity coefficient was found to be 19.4 ± 2 (313.15 K); 18.8 ± 2 (323.15 K); 19.1 ± 2 (343.15 K); 18.6 ± 2 (363.15 K); 18.3 ± 1.9 (373.15 K).

As to `CCCOCCC` [dipropyl ether] + CCCC[N+]1(C)CCCC1.N#CN=C=[N-], the activity coefficient is, setting by setting: (313.15 K) 17.9 ± 1.9; (323.15 K) 17 ± 1.8; (343.15 K) 16.8 ± 1.8; (363.15 K) 16.6 ± 1.7; (373.15 K) 16.6 ± 1.7.

On to `CCO` [ethanol] + CCCC[N+]1(C)CCCC1.N#CN=C=[N-], for which the activity coefficient by setting is: (313.15 K) 0.533 ± 0.058; (323.15 K) 0.525 ± 0.057; (343.15 K) 0.52 ± 0.06; (363.15 K) 0.519 ± 0.057; (373.15 K) 0.521 ± 0.057.

Take `CCOC(C)=O` [ethyl acetate] + CCCC[N+]1(C)CCCC1.N#CN=C=[N-]: the activity coefficient (313.15 K) was found to be 2.35 ± 0.25; the activity coefficient (323.15 K) was determined as 2.36 ± 0.25; the activity coefficient (343.15 K) stood at 2.48 ± 0.26; the activity coefficient (363.15 K) was 2.57 ± 0.27; the activity coefficient (373.15 K) amounted to 2.61 ± 0.27.

For `CCc1ccccc1` [ethylbenzene] + CCCC[N+]1(C)CCCC1.N#CN=C=[N-], the activity coefficient is, setting by setting: (313.15 K) 3.32 ± 0.35; (323.15 K) 3.43 ± 0.36; (343.15 K) 3.52 ± 0.37; (363.15 K) 3.7 ± 0.4; (373.15 K) 3.77 ± 0.4.

For `CCCCCCC` [heptane] + CCCC[N+]1(C)CCCC1.N#CN=C=[N-], the activity coefficient (313.15 K) stood at 79.1 ± 8.3; the activity coefficient (323.15 K) worked out at 74.6 ± 7.9; the activity coefficient (343.15 K) came out at 66.5 ± 7; the activity coefficient (363.15 K) was 60.2 ± 6.3; the activity coefficient (373.15 K) is 53.6 ± 5.6.

For the molecule `C=CCCCC` [hex-1-ene] + CCCC[N+]1(C)CCCC1.N#CN=C=[N-], the activity coefficient runs as follows: (313.15 K) 21 ± 2.2; (323.15 K) 20.3 ± 2.1; (343.15 K) 19.3 ± 2; (363.15 K) 18.4 ± 1.9; (373.15 K) 18.6 ± 2.

Consider `CO` [methanol] + CCCC[N+]1(C)CCCC1.N#CN=C=[N-], for which the activity coefficient runs as follows: (313.15 K) 0.336 ± 0.042; (323.15 K) 0.333 ± 0.041; (343.15 K) 0.339 ± 0.042; (363.15 K) 0.348 ± 0.043; (373.15 K) 0.353 ± 0.043.

In the case of `CCCC(=O)OC` [methyl butanoate] + CCCC[N+]1(C)CCCC1.N#CN=C=[N-], the activity coefficient came to 2.92 ± 0.31 (313.15 K); 3 ± 0.32 (323.15 K); 3.16 ± 0.33 (343.15 K); 3.25 ± 0.34 (363.15 K); 3.34 ± 0.35 (373.15 K).

On to `CCC(=O)OC` [methyl propanoate] + CCCC[N+]1(C)CCCC1.N#CN=C=[N-], for which the activity coefficient is, setting by setting: (313.15 K) 2.07 ± 0.22; (323.15 K) 2.09 ± 0.22; (343.15 K) 2.22 ± 0.23; (363.15 K) 2.33 ± 0.24; (373.15 K) 2.4 ± 0.25.

The record behind these values is the NIST ThermoML archive (doi:10.1016/j.fluid.2018.06.013).
